Test results: ChEMBL document CHEMBL1201862, “PubChem BioAssay data set” (2004)
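A five-concentration, 48-hour dose response in 96-well plates underlies each endpoint, interpolated linearly between surrounding concentrations. GI50: concentration for 50% inhibition of growth.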 Active and inactive are the calls of the source. No stated cut-off is given here; in the data, active = GI50 up to about 1.1 µM and inactive = higher.

How the values were obtained:
Experiment in all cases: DTP human tumour cell line panel, 48 h
A498 = tested on: A498
A549 = tested on: A549
HCC 2998 = tested on: HCC 2998
HL-60 = tested on: HL-60
K562 = tested on: K562
KM12 = tested on: KM12
NCI-H226 = tested on: NCI-H226
NCI-H522 = tested on: NCI-H522
OVCAR-3 = tested on: OVCAR-3
OVCAR-8 = tested on: OVCAR-8
RXF 393 = tested on: RXF 393
SK-MEL-28 = tested on: SK-MEL-28
SK-MEL-5 = tested on: SK-MEL-5
SK-OV-3 = tested on: SK-OV-3
SN12C = tested on: SN12C
U-251 = tested on: U-251
UACC-257 = tested on: UACC-257
UO-31 = tested on: UO-31
MDA-N = tested on: MDA-N
BT-549 = tested on: BT-549

Row | Compound | GI50 (A498) | GI50 (A549) | GI50 (HCC 2998) | GI50 (HL-60) | GI50 (K562) | GI50 (KM12) | GI50 (NCI-H226) | GI50 (NCI-H522) | GI50 (OVCAR-3) | GI50 (OVCAR-8) | GI50 (RXF 393) | GI50 (SK-MEL-28) | GI50 (SK-MEL-5) | GI50 (SK-OV-3) | GI50 (SN12C) | GI50 (U-251) | GI50 (UACC-257) | GI50 (UO-31) | GI50 (MDA-N) | GI50 (BT-549)
1 | CSc1ccc2c(cc1=O)C(NC(=O)c1ccccc1)CCc1cc(O)c(O)c(O)c1-2 (stereo unspecified) | 22.3 µM (inactive) | 30.5 µM (inactive) | 4.84 µM (inactive) | 7.43 µM (inactive) | 10.9 µM (inactive) | 4.81 µM (inactive) | 21.2 µM (inactive) | 17.1 µM (inactive) | 2.51 µM (inactive) | 37.4 µM (inactive) | 24.5 µM (inactive) | 24.5 µM (inactive) | 2.61 µM (inactive) | 5.71 µM (inactive) | 18.4 µM (inactive) | 6.37 µM (inactive) | 15.3 µM (inactive) | 77.8 µM (inactive) | – | –
2 | CC1(C)[C@@H](Cn2cc(I)c(=O)[nH]c2=O)CC[C@@]1(C)CO | > 100 µM (inactive) | > 100 µM (inactive) | > 100 µM (inactive) | – | 45.1 µM (inactive) | > 100 µM (inactive) | > 100 µM (inactive) | – | > 100 µM (inactive) | – | > 100 µM (inactive) | > 100 µM (inactive) | 92.9 µM (inactive) | > 100 µM (inactive) | > 100 µM (inactive) | > 100 µM (inactive) | > 100 µM (inactive) | > 100 µM (inactive) | > 100 µM (inactive) | –
3 | COc1cc2c(cc1OC)C(CC(=O)NN=C(C)C)NCC2 (stereo unspecified) | > 100 µM (inactive) | > 100 µM (inactive) | > 100 µM (inactive) | > 100 µM (inactive) | > 100 µM (inactive) | > 100 µM (inactive) | > 100 µM (inactive) | > 100 µM (inactive) | > 100 µM (inactive) | > 100 µM (inactive) | > 100 µM (inactive) | > 100 µM (inactive) | > 100 µM (inactive) | > 100 µM (inactive) | > 100 µM (inactive) | > 100 µM (inactive) | > 100 µM (inactive) | > 100 µM (inactive) | – | –
4 | Cc1cc2nc3c(N)nn(CCCN(C)C)c3nc2cc1C | > 100 µM (inactive) | > 100 µM (inactive) | 41.3 µM (inactive) | – | – | 93.8 µM (inactive) | – | – | > 100 µM (inactive) | 83 µM (inactive) | > 100 µM (inactive) | > 100 µM (inactive) | > 100 µM (inactive) | > 100 µM (inactive) | > 100 µM (inactive) | 71.9 µM (inactive) | 97.5 µM (inactive) | 46.6 µM (inactive) | – | > 100 µM (inactive)
5 | CNC(N)NC | > 100 µM (inactive) | > 100 µM (inactive) | > 100 µM (inactive) | > 100 µM (inactive) | > 100 µM (inactive) | > 100 µM (inactive) | > 100 µM (inactive) | > 100 µM (inactive) | > 100 µM (inactive) | > 100 µM (inactive) | > 100 µM (inactive) | > 100 µM (inactive) | > 100 µM (inactive) | > 100 µM (inactive) | > 100 µM (inactive) | > 100 µM (inactive) | > 100 µM (inactive) | > 100 µM (inactive) | – | –
6 | N#CCCN(CCC#N)c1ccc(/C=C(/NC(=O)c2cc([N+](=O)[O-])ccc2Cl)C(=O)N=[N+]=[N-])cc1 | > 100 µM (inactive) | > 100 µM (inactive) | > 100 µM (inactive) | > 100 µM (inactive) | > 100 µM (inactive) | > 100 µM (inactive) | > 100 µM (inactive) | > 100 µM (inactive) | > 100 µM (inactive) | > 100 µM (inactive) | > 100 µM (inactive) | > 100 µM (inactive) | > 100 µM (inactive) | > 100 µM (inactive) | > 100 µM (inactive) | > 100 µM (inactive) | > 100 µM (inactive) | > 100 µM (inactive) | – | –
7 | C[C@H](O)C1CC(Cn2nnc3c(N)ncnc32)C1(C)C (stereo partly specified) | > 100 µM (inactive) | > 100 µM (inactive) | > 100 µM (inactive) | – | < 0.01 µM (active) | > 100 µM (inactive) | > 100 µM (inactive) | – | > 100 µM (inactive) | – | > 100 µM (inactive) | > 100 µM (inactive) | > 100 µM (inactive) | > 100 µM (inactive) | > 100 µM (inactive) | > 100 µM (inactive) | > 100 µM (inactive) | > 100 µM (inactive) | > 100 µM (inactive) | –
8 | NC1=CN2c3ccccc3N(CC(=O)O)C2C=C1 (stereo unspecified) | > 100 µM (inactive) | > 100 µM (inactive) | > 100 µM (inactive) | > 100 µM (inactive) | > 100 µM (inactive) | > 100 µM (inactive) | > 100 µM (inactive) | – | > 100 µM (inactive) | > 100 µM (inactive) | > 100 µM (inactive) | > 100 µM (inactive) | > 100 µM (inactive) | > 100 µM (inactive) | – | > 100 µM (inactive) | > 100 µM (inactive) | > 100 µM (inactive) | – | > 100 µM (inactive)
